The values that follow come from article PMC4348036, “Structural and Functional Investigation of Flavin Binding Center of the NqrC Subunit of Sodium-Translocating NADH:Quinone Oxidoreductase from Vibrio harveyi” (PLoS ONE, 2015).

SMILES strings stand for the structures.

This assay deals with T1, holoNqrC' (NqrC subunit of Na+-translocating NADH:quinone oxidoreductase, soluble flavin-binding domain) (Vibrio harveyi, UniProt K5TWQ4).
T1 construct: soluble truncated NqrC without N-terminal transmembrane helix, residues 33-261, C-terminal 6xHis tag; E. coli, co-expressed with flavin transferase ApbE (plasmids pMshC3 + pdhis3); model covers residues 36-261
Nature of the assay: X-ray crystallography, […] Å. As to conditions: covalent; phosphoester bond to Thr229, attached in vivo by flavin transferase ApbE; pH 6.8.

T1 sequence (K5TWQ4 33-261): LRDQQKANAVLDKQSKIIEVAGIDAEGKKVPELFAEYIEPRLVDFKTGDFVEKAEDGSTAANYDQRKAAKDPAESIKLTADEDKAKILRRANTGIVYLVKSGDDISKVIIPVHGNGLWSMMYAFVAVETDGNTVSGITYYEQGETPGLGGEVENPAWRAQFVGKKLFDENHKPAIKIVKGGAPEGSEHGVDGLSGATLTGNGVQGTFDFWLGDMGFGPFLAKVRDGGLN

As to `Cc1cc2nc3c(=O)[nH]c(=O)nc-3n(C[C@H](O)[C@H](O)[C@H](O)COP(=O)(O)O)c2cc1C` [FMN], the “X-ray crystallography, 1.56 Å” value is “The electron density of Thr229 side chain unambiguously demonstrates its flavinylation”.
